Laboratory results: patent publication US12252484B2, “Pyrazolopyridine compounds for the treatment of autoimmune disease” (Hoffmann-La Roche Inc., priority 2018, dated 2025)

biological target: T1, human TLR8 (Homo sapiens, UniProt Q9NR97); assay: HEK293-Blue-hTLR-8 cells assay (SEAP reporter, R848 stimulation); assay type: cell-based; details: not given
T1 sequence (Q9NR97 27-1041): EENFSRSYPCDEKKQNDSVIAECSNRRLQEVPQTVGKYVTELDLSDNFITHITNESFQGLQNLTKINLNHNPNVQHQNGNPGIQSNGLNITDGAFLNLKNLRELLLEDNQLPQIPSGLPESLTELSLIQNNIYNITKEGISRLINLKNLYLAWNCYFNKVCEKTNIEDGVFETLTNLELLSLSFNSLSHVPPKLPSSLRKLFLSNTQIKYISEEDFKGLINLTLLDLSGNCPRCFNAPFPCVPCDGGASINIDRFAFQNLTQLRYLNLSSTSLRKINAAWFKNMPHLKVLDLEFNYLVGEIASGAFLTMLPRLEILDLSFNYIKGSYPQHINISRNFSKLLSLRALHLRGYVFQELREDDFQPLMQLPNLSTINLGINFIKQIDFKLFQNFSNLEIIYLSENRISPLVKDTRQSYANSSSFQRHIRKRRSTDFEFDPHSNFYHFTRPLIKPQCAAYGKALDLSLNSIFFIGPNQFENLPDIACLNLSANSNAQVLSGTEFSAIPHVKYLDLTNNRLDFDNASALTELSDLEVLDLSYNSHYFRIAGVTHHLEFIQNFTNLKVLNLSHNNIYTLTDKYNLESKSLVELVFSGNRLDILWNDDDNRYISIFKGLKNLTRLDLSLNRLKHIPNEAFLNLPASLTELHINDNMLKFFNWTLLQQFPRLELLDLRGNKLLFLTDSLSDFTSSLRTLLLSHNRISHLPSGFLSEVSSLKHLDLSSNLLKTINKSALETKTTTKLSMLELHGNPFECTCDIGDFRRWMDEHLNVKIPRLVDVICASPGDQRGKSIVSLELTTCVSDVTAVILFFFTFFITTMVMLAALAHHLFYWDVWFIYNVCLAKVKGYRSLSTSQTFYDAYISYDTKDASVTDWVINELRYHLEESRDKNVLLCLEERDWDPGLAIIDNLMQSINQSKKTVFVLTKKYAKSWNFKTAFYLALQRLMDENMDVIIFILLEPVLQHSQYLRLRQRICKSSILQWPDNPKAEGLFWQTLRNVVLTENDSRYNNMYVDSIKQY
Protocol: The following tests were carried out in order to determine the activity of the compounds of formula (I) in HEK293-Blue-hTLR-7/8/9 cells assay.
HEK293-Blue-hTLR-8 Cells Assay:
A stable HEK293-Blue-hTLR-8 cell line was purchased from InvivoGen (Cat. #: hkb-htlr8, San Diego, California, USA). These cells were originally designed for studying the stimulation of human TLR8 by monitoring the activation of NF-κB. A SEAP (secreted embryonic alkaline phosphatase) reporter gene was placed under the control of the IFN-β minimal promoter fused to five NF-κB and AP-1-binding sites. The SEAP was induced by activating NF-κB and AP-1 via stimulating HEK-Blue hTLR8 cells with TLR8 ligands. Therefore the reporter expression was declined by TLR8 antagonist under the stimulation of a ligand, such as R848, for incubation of 20 hrs. The cell culture supernatant SEAP reporter activity was determined using QUANTI-Blue™ kit (Cat. #: rep-qb1, Invivogen, San Diego, Ca, USA) at a wavelength of 640 nm, a detection medium that turns purple or blue in the presence of alkaline phosphatase.
HEK293-Blue-hTLR8 cells were incubated at a density of 250,000˜450,000 cells/mL in a volume of 170 μL in a 96-well plate in Dulbecco's Modified Eagle's medium (DMEM) containing 4.5 g/L glucose, 50 U/mL penicillin, […], […], 2 mM L-glutamine, 10% (v/v) heat-inactivated fetal bovine serum with addition of 20 μL test compound in a serial dilution in the presence of final DMSO at 1% and 10 μL of 60 uM R848 in above DMEM, perform incubation under 37° C. in a CO2 incubator for 20 hrs. Then 20 μL of the supernatant from each well was incubated with 180 μL Quanti-blue substrate solution at 37° C. for 2 hrs and the absorbance was read at 620˜655 nm using a spectrophotometer. The signalling pathway that TLR8 activation leads to downstream NF-κB activation has been widely accepted, and therefore similar reporter assay was modified for evaluating TLR8 antagonist.

| Structure (SMILES) | IC50 [nM] |
| --- | --- |
| C[C@@H]1CN(c2ccc(C#N)n3nccc23)C[C@H](C(=O)NC2CC3CCCC(C2)N3C)O1 (stereo partly drawn) [Example 35, (2R,6R)-4-(7-cyanopyrazolo[1,5-a]pyridin-4-yl)-6-methyl-N-(9-methyl-9-azabicyclo[3.3.1]nonan-3-yl)morpholine-2-carboxamide] | 38 |

same assay, conditions: HEK293-Blue-hTLR-8 cells, R848 ligand, 20 hrs incubation; read-out: TLR8 IC50

| Structure (SMILES) | IC50 [nM] |
| --- | --- |
| C[C@@H]1CN(c2ccc(C#N)n3nccc23)C[C@H](C(=O)N2CCC3(CCNCC3)CC2)O1 [Example 28, 4-[(2R,6R)-2-(3,9-diazaspiro[5.5]undecane-3-carbonyl)-6-methyl-morpholin-4-yl]pyrazolo[1,5a]pyridine-7-carbonitrile] | 97 |
| C[C@@H]1CN(c2ccc(Cl)n3nccc23)C[C@H](C(=O)NC2CCN(C)CC2)O1 [Example 38, (2R,6R)-4-(7-chloropyrazolo[1,5-a]pyridin-4-yl)-6-methyl-N-(1-methyl-4-piperidyl)morpholine-2-carboxamide] | 7 |
| C[C@@H]1CN(c2ccc(C#N)n3nccc23)C[C@H](C(=O)NC2CC3CCC(C2)N3)O1 (stereo partly drawn) [Example 23, Exo-(2R,6R)-N-[8-azabicyclo[3.2.1]octan-3-yl]-4-(7-cyanopyrazolo[1,5-a]pyridin-4-yl)-6-methyl-morpholine-2-carboxamide] | 74 |
| C[C@@H]1CN(c2ccc(C#N)n3nccc23)C[C@H](C(=O)N2CC(N)C2)O1 [Example 8, 4-[(2R,6R)-2-(3-aminoazetidine-1-carbonyl)-6-methyl-morpholin-4-yl]pyrazolo[1,5a]pyridine-7-carbonitrile] | 520 |
| C[C@H]1C[C@@H](N)CN(c2ccc(C#N)n3nccc23)C1 [Example 43, 4-[(3R,5S)-3-amino-5-methyl-1-piperidyl]pyrazolo[1,5-a]pyridine-7-carbonitrile] | 12 |
| C[C@@H]1CN(c2ccc(C#N)n3nccc23)C[C@H](C(=O)NC23CC4CC(CC(C4)C2)C3)O1 [Example 12, (2R,6R)-N-(1-adamantyl)-4-(7-cyanopyrazolo[1,5-a]pyridin-4-yl)-6-methyl-morpholine-2-carboxamide] | 320 |
| C[C@@H]1CN(c2ccc(C#N)n3nccc23)C[C@H](C(=O)NCC(C)(C)CN)O1 [Example 39, (2R,6R)-N-(3-amino-2,2-dimethyl-propyl)-4-(7-cyanopyrazolo[1,5-a]pyridin-4-yl)-6-methyl-morpholine-2-carboxamide] | 33 |
| C[C@H]1C[C@@H](NC(=O)[C@H](C)N)CN(c2ccc(C#N)n3nccc23)C1 [Example 44, (2S)-2-amino-N-[(3R,5S)-1-(7-cyanopyrazolo[1,5-a]pyridin-4-yl)-5-methyl-3-piperidyl]propanamide] | 140 |
| C[C@@H]1CN(c2ccc(C#N)n3nccc23)C[C@H](C(=O)NC2CC3CCC(C2)N3C)O1 (stereo partly drawn) [Example 33, (2R,6R)-4-(7-cyanopyrazolo[1,5-a]pyridin-4-yl)-6-methyl-N-(8-methyl-8-azabicyclo[3.2.1]octan-3-yl)morpholine-2-carboxamide] | 58 |
| C[C@@H]1CN(c2ccc(C#N)n3nccc23)C[C@H](C(=O)NC2CC3CCCC(C2)N3)O1 (stereo partly drawn) [Example 14, (2R,6R)-N-(9-azabicyclo[3.3.1]nonan-3-yl)-4-(7-cyanopyrazolo[1,5-a]pyridin-4-yl)-6-methyl-morpholine-2-carboxamide] | 30 |
| C[C@@H]1CN(c2ccc(C#N)n3nccc23)C[C@H](C(=O)NC(C)(C)CN)O1 [Example 41, (2R,6R)-N-(2-amino-1,1-dimethyl-ethyl)-4-(7-cyanopyrazolo[1,5-a]pyridin-4-yl)-6-methyl-morpholine-2-carboxamide] | 140 |

Now from value to molecule:

| IC50 [nM] | Structure (SMILES) |
| --- | --- |
| 610 | C[C@@H]1CN(c2ccc(C#N)n3nccc23)C[C@H](C(=O)NC2CCNC2)O1 (stereo partly drawn) [Example 25, (2R,6R)-4-(7-cyanopyrazolo[1,5-a]pyridin-4-yl)-6-methyl-N-pyrrolidin-3-yl-morpholine-2-carboxamide] |
| 860 | COCCNC(=O)[C@H]1CN(c2ccc(C#N)n3nccc23)C[C@@H](C)O1 [Example 9, (2R,6R)-4-(7-cyanopyrazolo[1,5-a]pyridin-4-yl)-N-(2-methoxyethyl)-6-methyl-morpholine-2-carboxamide] |
| 95 | C[C@@H]1CN(c2ccc(C#N)n3nccc23)C[C@H](C(=O)NC2CC3(CNC3)C2)O1 [Example 3, (2R,6R)-N-(2-azaspiro[3.3]heptan-6-yl)-4-(7-cyanopyrazolo[1,5-a]pyridin-4-yl)-6-methyl-morpholine-2-carboxamide] |
| 710 | C[C@@H]1CN(c2ccc(C#N)n3nccc23)C[C@H](C(=O)NC23CC(CO)(C2)C3)O1 [Example 15, (2R,6R)-4-(7-cyanopyrazolo[1,5-a]pyridin-4-yl)-N-[3-(hydroxymethyl)-1-bicyclo[1.1.1]pentanyl]-6-methyl-morpholine-2-carboxamide] |
| 190 | C[C@@H]1CN(c2ccc(C#N)n3nccc23)C[C@H](C(=O)N[C@H]2CC[C@@H](O)CC2)O1 [Example 20, Cis-(2R,6R)-4-(7-cyanopyrazolo[1,5-a]pyridin-4-yl)-N-(4-hydroxycyclohexyl)-6-methyl-morpholine-2-carboxamide] |
| 47 | C[C@@H]1CN(c2ccc(C#N)n3nccc23)C[C@H](C(=O)NC2CNC[C@H]2F)O1 (stereo partly drawn) [Example 5, Cis-(2R,6R)-4-(7-cyanopyrazolo[1,5-a]pyridin-4-yl)-6-methyl-N-(4-fluoropyrrolidin-3-yl) morpholine-2-carboxamide] |
| 380 | C[C@@H]1CN(c2ccc(C#N)n3nccc23)C[C@H](C(=O)NCC2CCNC2)O1 (stereo partly drawn) [Example 40, (2R,6R)-4-(7-cyanopyrazolo[1,5-a]pyridin-4-yl)-6-methyl-N-(pyrrolidin-3-ylmethyl)morpholine-2-carboxamide] |
| 160 | C[C@@H]1CN(c2ccc(C#N)n3nccc23)C[C@H](C(=O)N[C@H]2CNC[C@H]2F)O1 [Example 2, (2R,6R)-4-(7-cyanopyrazolo[1,5-a]pyridin-4-yl)-N-[(3S,4R)-4-fluoropyrrolidin-3-yl]-6-methyl-morpholine-2-carboxamide] |
| 830 | C[C@@H]1CN(c2ccc(C#N)n3nccc23)C[C@H](C(=O)NC2CC3CC2CN3)O1 (stereo partly drawn) [Example 36, (2R,6R)-N-(2-azabicyclo[2.2.1]heptan-5-yl)-4-(7-cyanopyrazolo[1,5-a]pyridin-4-yl)-6-methyl-morpholine-2-carboxamide] |
| 93 | C[C@@H]1CN(c2ccc(C#N)n3nccc23)C[C@H](C(=O)NC2C3CCC2CNC3)O1 (stereo partly drawn) [Example 26, (2R,6R)-N-(3-azabicyclo[3.2.1]octan-8-yl)-4-(7-cyanopyrazolo[1,5-a]pyridin-4-yl)-6-methyl-morpholine-2-carboxamide] |
| 910 | C[C@@H]1CN(c2ccc(C#N)n3nccc23)C[C@H](C(=O)NC2CCOCC2)O1 [Example 4, (2R,6R)-4-(7-cyanopyrazolo[1,5-a]pyridin-4-yl)-6-methyl-N-tetrahydropyran-4-yl-morpholine-2-carboxamide] |
| 570 | C[C@@H]1CN(c2ccc(C#N)n3nccc23)C[C@H](C(=O)N[C@H]2CC[C@H](O)CC2)O1 [Example 21, Trans-(2R,6R)-4-(7-cyanopyrazolo[1,5-a]pyridin-4-yl)-N-(4-hydroxycyclohexyl)-6-methyl-morpholine-2-carboxamide] |
